Experimental data as given in patent US20240398893A1, “ANTI-CORONAVIRUS POLYPEPTIDE AS WELL AS DERIVATIVE AND APPLICATION THEREOF” (priority 2021, published 2024).

The compounds below were run on pseudovirus of SARS-COV-2 variant Omicron (BA.1). Conditions: pseudovirus of variant Omicron (BA.1).
Work on CC[C@H](C)[C@H](NC(=O)CNC(=O)[C@H](CO)NC(=O)[C@@H](NC(=O)[C@H](CC(=O)O)NC(=O)CNC(=O)[C@H](Cc1ccccc1)NC(=O)[C@H](CCCCN)NC(=O)[C@@H](N)C(C)C)[C@@H](C)CC)C(=O)N[C@@H](CC(N)=O)C(=O)N[C@@H](C)C(=O)N[C@@H](CO)C(=O)N[C@H](C(=O)N[C@H](C(=O)N[C@@H](CC(N)=O)C(=O)N[C@H](C(=O)N[C@@H](CCCCN)C(=O)N[C@@H](CCC(=O)O)C(=O)N[C@@H](CCC(=O)O)C(=O)N[C@H](C(=O)N[C@@H](CC(=O)O)C(=O)N[C@@H](CCCNC(=N)N)C(=O)N[C@@H](CC(C)C)C(=O)N[C@@H](Cc1ccc(O)cc1)C(=O)N[C@@H](CCC(=O)O)C(=O)N[C@H](C(=O)N[C@H](C(=O)N[C@@H](CCCCN)C(=O)N[C@@H](CC(N)=O)C(=O)N[C@@H](CC(C)C)C(=O)N[C@@H](CC(N)=O)C(=O)N[C@@H](CCC(=O)O)C(=O)N[C@@H](CO)C(=O)N[C@@H](CC(C)C)C(=O)N[C@H](C(=O)N[C@@H](CC(=O)O)C(=O)N[C@@H](CC(C)C)C(=O)N[C@@H](CCC(N)=O)C(=O)N[C@@H](CCC(=O)O)C(=O)N[C@@H](CC(C)C)C(=O)NCC(=O)N[C@@H](CO)C(=O)NCC(=O)N[C@@H](CO)C(=O)NCC(=O)N[C@@H](CSCC(=O)O[C@H]1CC[C@@]2(C)C(=CC[C@H]3[C@@H]4CC[C@H]([C@H](C)CCCC(C)C)[C@@]4(C)CC[C@@H]32)C1)C(N)=O)[C@@H](C)CC)C(C)C)C(C)C)[C@@H](C)CC)[C@@H](C)CC)C(C)C)C(C)C [P3-3-GS-Chol] yielded an EC50 of 1730 nM.
CC[C@H](C)[C@H](NC(=O)CNC(=O)[C@H](CO)NC(=O)[C@@H](NC(=O)[C@H](CC(=O)O)NC(=O)CNC(=O)[C@H](Cc1ccccc1)NC(=O)[C@H](CCCCN)NC(=O)[C@@H](N)C(C)C)[C@@H](C)CC)C(=O)N[C@@H](CC(N)=O)C(=O)N[C@@H](C)C(=O)N[C@@H](CO)C(=O)N[C@H](C(=O)N[C@H](C(=O)N[C@@H](CC(N)=O)C(=O)N[C@H](C(=O)N[C@@H](CCCCN)C(=O)N[C@@H](CCC(=O)O)C(=O)N[C@@H](CCC(=O)O)C(=O)N[C@H](C(=O)N[C@@H](CC(=O)O)C(=O)N[C@@H](CCCNC(=N)N)C(=O)N[C@@H](CC(C)C)C(=O)N[C@@H](Cc1ccc(O)cc1)C(=O)N[C@@H](CCC(=O)O)C(=O)N[C@H](C(=O)N[C@H](C(=O)N[C@@H](CCCCN)C(=O)N[C@@H](CC(N)=O)C(=O)N[C@@H](CC(C)C)C(=O)N[C@@H](CC(N)=O)C(=O)N[C@@H](CCC(=O)O)C(=O)N[C@@H](CO)C(=O)N[C@@H](CC(C)C)C(=O)N[C@H](C(=O)N[C@@H](CC(=O)O)C(=O)N[C@@H](CC(C)C)C(=O)N[C@@H](CCC(N)=O)C(=O)N[C@@H](CCC(=O)O)C(=O)N[C@@H](CC(C)C)C(=O)N[C@@H](CSCC(=O)NCCOCCOCCOCCOCC(=O)O[C@H]1CC[C@@]2(C)C(=CC[C@H]3[C@@H]4CC[C@H]([C@H](C)CCCC(C)C)[C@@]4(C)CC[C@@H]32)C1)C(N)=O)[C@@H](C)CC)C(C)C)C(C)C)[C@@H](C)CC)[C@@H](C)CC)C(C)C)C(C)C [P3-3-PEG-Chol] showed an EC50 of 571 nM.
Compound CC[C@H](C)[C@H](NC(=O)CNC(=O)[C@H](CO)NC(=O)[C@@H](NC(=O)[C@H](CC(=O)O)NC(=O)CNC(=O)[C@H](Cc1ccccc1)NC(=O)[C@H](CCCCN)NC(=O)[C@@H](N)C(C)C)[C@@H](C)CC)C(=O)N[C@@H](CC(N)=O)C(=O)N[C@@H](C)C(=O)N[C@@H](CO)C(=O)N[C@H](C(=O)N[C@H](C(=O)N[C@@H](CC(N)=O)C(=O)N[C@H](C(=O)N[C@@H](CCCCN)C(=O)N[C@@H](CCC(=O)O)C(=O)N[C@@H](CCC(=O)O)C(=O)N[C@H](C(=O)N[C@@H](CC(=O)O)C(=O)N[C@@H](CCCNC(=N)N)C(=O)N[C@@H](CC(C)C)C(=O)N[C@@H](Cc1ccc(O)cc1)C(=O)N[C@@H](CCC(=O)O)C(=O)N[C@H](C(=O)N[C@H](C(=O)N[C@@H](CCCCN)C(=O)N[C@@H](CC(N)=O)C(=O)N[C@@H](CC(C)C)C(=O)N[C@@H](CC(N)=O)C(=O)N[C@@H](CCC(=O)O)C(=O)N[C@@H](CO)C(=O)N[C@@H](CC(C)C)C(=O)N[C@H](C(=O)N[C@@H](CC(=O)O)C(=O)N[C@@H](CC(C)C)C(=O)N[C@@H](CCC(N)=O)C(=O)N[C@@H](CCC(=O)O)C(=O)N[C@@H](CC(C)C)C(=O)O)[C@@H](C)CC)C(C)C)C(C)C)[C@@H](C)CC)[C@@H](C)CC)C(C)C)C(C)C [P3-3] has an EC50 of 22700 nM.
